Tests used:
[1] = test system: symmetric di-methyl arginine in Z-138 cells; experiment: Z-138 Methylation Assay (In Cell Western for symmetric di-methyl arginine and DNA content); format: cell-based; details: Homo sapiens, read-out: ICW EC50
Text: [formula] Where top and bottom are the normally allowed to float, but may be fixed at 100 or 0 respectively in a 3-parameter fit. The Hill Coefficient normally allowed to float but may also be fixed at 1 in a 3-parameter fit. Y is the % inhibition and X is the compound concentration.
RPMI/Glutamax medium, penicillin-streptomycin, heat inactivated fetal bovine serum, and D-PBS were purchased from Life Technologies, Grand Island, N.Y., USA. Odyssey blocking buffer, 800CW goat anti-rabbit IgG (H+L) antibody, and Licor Odyssey infrared scanner were purchased from Licor Biosciences, Lincoln, Nebr., USA. Symmetric di-methyl arginine antibody was purchased from EMD Millipore, Billerica, Mass., USA. 16% Paraformaldehyde was purchased from Electron Microscopy Sciences, Hatfield, Pa., USA.
Cell Treatment, in Cell Western (ICW) for Detection of Symmetric Di-Methyl Arginine and DNA Content.
Z-138 cells were seeded in assay medium at a concentration of 50,000 cells per mL to a 384-well cell culture plate with 50 μL per well. Compound (100 nL) from 384 well source plates was added directly to 384 well cell plate. Plates were incubated at 37° C., 5% CO2 for 96 hours. […] Plates were incubated at room temperature for 30 minutes then incubated at 37° C., 5% CO2 for 5 hours. After the incubation, 40 μL per well of 8% paraformaldehyde in PBS (16% paraformaldahyde was diluted to 8% in PBS) was added to each plate and incubated for 30 minutes. […] Next 30 μL per well of Odyssey blocking buffer were added to each plate and incubated 1 hour at room temperature. […]
First, the ratio for each well was determined by:
Each plate included fourteen control wells of DMSO only treatment (minimum inhibition) as well as fourteen control wells for maximum inhibition treated with 3 μM of a reference compound (Background wells). The average of the ratio values for each control type was calculated and used to determine the percent inhibition for each test well in the plate. […] Percent inhibition was determined and IC50 curves were generated using triplicate wells per concentration of compound.

Z-138 cell line = experiment: Z-138 Proliferation Assay (Cell Titer Glo, 5 days); format: cell-based; details: Z-138 cells
Text: RPMI/Glutamax medium, penicillin-streptomycin, heat inactivated fetal bovine serum were purchased from Life Technologies, Grand Island, N.Y., USA. V-bottom polypropylene 384-well plates were purchased from Greiner Bio-One, Monroe, N.C., USA. Cell culture 384-well white opaque plates were purchased from Perkin Elmer, Waltham, Mass., USA. Cell-Titer Glo® was purchased from Promega Corporation, Madison, Wis., USA. SpectraMax M5 plate reader was purchased from Molecular Devices LLC, Sunnyvale, Calif., USA.
A compound source plate was prepared by performing triplicate nine-point 3-fold serial dilutions in DMSO, beginning at 10 mM (final top concentration of compound in the assay was 20 μM and the DMSO was 0.2%). A 100 nL aliquot from the compound stock plate was added to its respective well in the cell plate. […] After addition of compounds, assay plates were incubated for 5 days at 37° C., 5% CO2, relative humidity >90%. […] Luminescence was read in the SpectraMax M5 microplate reader. The concentration of compound inhibiting cell viability by 50% was determined using a 4-parametric fit of the normalized dose response curves.

PRMT5/MEP50 = PRMT5/MEP50 (Homo sapiens (Human), UniProt O14744); experiment: PRMT5 Biochemical Assay (PRMT5/MEP50 enzyme assay on peptide substrate, 3H-SAM Flashplate); details: PRMT5/MEP50 biochemical assay; read-out: Biochemical IC50
Chain of PRMT5/MEP50 (O14744 other isoform, or with tags, fused parts or gaps): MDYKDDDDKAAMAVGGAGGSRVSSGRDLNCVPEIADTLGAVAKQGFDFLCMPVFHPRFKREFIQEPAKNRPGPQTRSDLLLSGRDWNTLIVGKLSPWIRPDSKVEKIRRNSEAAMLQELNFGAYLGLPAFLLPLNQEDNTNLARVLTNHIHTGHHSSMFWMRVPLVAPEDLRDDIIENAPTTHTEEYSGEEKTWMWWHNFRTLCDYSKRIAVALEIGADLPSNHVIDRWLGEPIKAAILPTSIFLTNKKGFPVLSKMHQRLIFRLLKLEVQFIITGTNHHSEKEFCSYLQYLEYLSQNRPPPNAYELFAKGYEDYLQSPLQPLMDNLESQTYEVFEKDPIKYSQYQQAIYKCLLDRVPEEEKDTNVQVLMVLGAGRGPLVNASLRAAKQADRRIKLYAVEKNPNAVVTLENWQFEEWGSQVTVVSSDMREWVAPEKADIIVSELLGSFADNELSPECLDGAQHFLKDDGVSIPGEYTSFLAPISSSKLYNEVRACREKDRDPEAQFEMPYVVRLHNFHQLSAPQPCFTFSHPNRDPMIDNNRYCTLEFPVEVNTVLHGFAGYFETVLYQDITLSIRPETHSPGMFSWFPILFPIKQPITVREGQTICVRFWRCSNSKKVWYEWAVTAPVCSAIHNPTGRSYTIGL
Chain of PRMT5/MEP50 (Q9BQA1 other isoform, or with tags, fused parts or gaps partner): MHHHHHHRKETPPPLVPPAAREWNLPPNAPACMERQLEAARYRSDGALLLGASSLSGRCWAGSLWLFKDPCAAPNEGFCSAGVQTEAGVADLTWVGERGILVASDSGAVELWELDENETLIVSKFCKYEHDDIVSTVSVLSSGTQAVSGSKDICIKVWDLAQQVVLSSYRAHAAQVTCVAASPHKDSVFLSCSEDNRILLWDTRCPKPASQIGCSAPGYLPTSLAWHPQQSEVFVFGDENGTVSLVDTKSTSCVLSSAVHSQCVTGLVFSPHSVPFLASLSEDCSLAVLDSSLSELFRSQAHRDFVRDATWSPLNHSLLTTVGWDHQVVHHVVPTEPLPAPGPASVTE

Row | SMILES | EC50 [1] | EC50 (Z-138 cell line) | IC50 (PRMT5/MEP50) | EC50 (Z-138 cell line; Homo sapiens, Z-138, 120 h)
1 | CN1CCC(Oc2cccc(C(=O)NCC(O)CN3CCc4ccccc4C3)c2)C1 (stereo not drawn) [Compound 120] | 101 to 1000 nM | 1 to 10 µM | < 100 nM | –
2 | CN1CCC(Oc2cc(C(=O)NC[C@H](O)CN3CCc4ccccc4C3)ncn2)CC1 [Compound 206] | 101 to 1000 nM | – | < 100 nM | 1 to 10 µM
